Assay results published in US8785351B2, “Herbicidal compositions containing bentazon and ALS inhibitor and ACCase inhibitor” (Dow AgroSciences LLC, priority 2012, dated 2014).

What was measured:
Assay in all cases: Postemergence herbicidal activity of mixtures in the field (direct-seeded rice), visual weed control
Assay type in all cases: in vivo
[1] = test system: Cyperus iria (CYPIR, rice flatsedge); details: grams ai/ha: penoxsulam 1, bentazon-Na 112.5, cyhalofop-butyl 9.4, each alone or all three mixed, rice field trials
Description: (§1) Evaluation of Postemergence Herbicidal Activity of Mixtures in the Field
(§2) Field trials were conducted in Vietnam and Taiwan in cultivated direct-seeded rice using standard herbicide small plot research methodology. Plots varied from 1×2 meter (m) to 4×5 m (width×length) with 3-4 replicates per treatment. The rice crop was grown using normal cultural practices for fertilization, seeding, watering, flooding and maintenance to ensure good growth of the crop and the weeds.
(§3) All treatments in the field trials were applied using a backpack air sprayer with flat fan nozzles calibrated to apply 320 to 450 L/ha spray volume at approximately 30 PSI. Commercially available products of penoxsulam (Clipper 25OD), bispyribac-sodium (Nominee 100SC), bentazon-sodium (Basagran 480SL), cyhalofop-butyl (Clincher 100EC), and fenoxaprop-P-ethyl (Whip S) were mixed in water at appropriate formulated product rates to achieve the desired rates based on a unit area of application (hectare) to achieve the desired rates as shown. Treatments were rated at 7 to 42 days after application (DAA) as compared to the untreated control plants. Visual weed control was scored on a scale of 0 to 100 percent where 0 corresponds to no injury and 100 corresponds to complete kill.
(§4) All treatment results, both for the single product and mixtures, are an average of 3 to 4 replicates and the tank mix interactions are significant at the […] level.
(§5) Colby's equation was used to determine the herbicidal effects expected from the mixtures (Colby, S. R. Calculation of the synergistic and antagonistic response of herbicide combinations. Weeds 1967, 15, 20-22.).
(§6) The following equation was used to calculate the expected activity of mixtures containing […]: Expected=A+B+C−(AB+AC+BC)/100+(ABC)/10,000
(§7) A=observed efficacy of active ingredient A at the same concentration as used in the mixture.
(§8) B=observed efficacy of active ingredient B at the same concentration as used in the mixture.
(§9) C=observed efficacy of active ingredient C at the same concentration as used in the mixture.
(§10) All comparisons are an average of 3 to 4 replicates and are significant at the […] level.

[2] = test system: Echinochloa crus-galli (ECHCG, barnyardgrass); details: rice field trials
Description: as §1, §2, §3, §4, §5, §6, §7, §8, §9, §10

[3] = test system: Fimbristylis miliacea (FIMMI, globe fringerush); details: grams ai/ha: penoxsulam 10, bentazon-Na 900, cyhalofop-butyl 75, each alone or all three mixed, rice field trials
Description: as §1, §2, §3, §4, §5, §6, §7, §8, §9, §10

[4] = test system: Leptochloa chinensis (LEFCH, Chinese sprangletop); details: grams ai/ha: penoxsulam 1.6, bentazon-Na 112.5, cyhalofop-butyl 37.5, each alone or all three mixed, rice field trials
Description: as §1, §2, §3, §4, §5, §6, §7, §8, §9, §10

[5] = test system: Monochoria vaginalis (MOOVA, monochoria); details: rice field trials
Description: as §1, §2, §3, §4, §5, §6, §7, §8, §9, §10

[6] = grams ai/ha: penoxsulam 4 alone (6 in the mix), bentazon-Na 450, fenoxaprop-P-ethyl 8, each alone or all three mixed
[7] = grams ai/ha: penoxsulam 10, bentazon-Na 900, cyhalofop-butyl 75, each alone or all three mixed
[8] = grams ai/ha: bispyribac-Na 4, bentazon-Na 225, cyhalofop-butyl 75, each alone or all three mixed
[9] = grams ai/ha: penoxsulam 5, bentazon-Na 450, cyhalofop-butyl 37.5, each alone or all three mixed

Row | Structure (SMILES) | % Visual Control CYPIR (42 DAA) Obs [1] | % Visual Control ECHCG (7 DAA) Obs [2, 6] | % Visual Control ECHCG (7 DAA) Obs [2, 7] | % Visual Control ECHCG (14 DAA) Obs [2, 8] | % Visual Control ECHCG (14 DAA) Obs [2, 7] | % Visual Control ECHCG (28 DAA) Obs [2, 7] | % Visual Control FIMMI (42 DAA) Obs [3] | % Visual Control LEFCH (7 DAA) Obs [4] | % Visual Control MOOVA (7 DAA) Obs [5, 6] | % Visual Control MOOVA (7 DAA) Obs [5, 9] | % Visual Control MOOVA (14 DAA) Obs [5, 9]
1 | CC(C)N1C(=O)c2ccccc2NS1(=O)=O [Bentazon (Na), 3-(1-methylethyl)-1H-2,1,3-benzothiadiazin-4(3H)-one 2,2-dioxide] | 63% | 0% | 0% | 0% | 0% | 0% | 0% | 0% | 17% | 0% | 0%
2 | COc1cc(OC)nc(Oc2cccc(Oc3nc(OC)cc(OC)n3)c2C(=O)[O-])n1.[Na+] [Bispyribac (Na), sodium 2,6-bis(4,6-dimethoxypyrimidin-2-yloxy)benzoate] | – | – | – | 0% | – | – | – | – | – | – | –
3 | CCOC(=O)[C@@H](C)Oc1ccc(Oc2nc3ccc(Cl)cc3o2)cc1 [Fenoxaprop-P (Ethyl), (R)-ethyl-2-[4-(6-chloro-1,3-benzoxazol-2-yloxy)phenoxy]propanoate] | – | 0% | – | – | – | – | – | – | 0% | – | –
4 | CCCCOC(=O)[C@@H](C)Oc1ccc(Oc2ccc(C#N)cc2F)cc1 [Cyhalofop (Butyl), (R)-butyl 2-[4-(4-cyano-2-fluorophenoxy)phenoxy]propanoate] | 0% | – | 37% | 40% | 43% | 40% | 60% | 83% | – | 0% | 0%
5 | COc1cnc(OC)n2nc(NS(=O)(=O)c3c(OCC(F)F)cccc3C(F)(F)F)nc12 [Penoxsulam, 2-(2,2-difluoroethoxy)-N-(5,8-dimethoxy[1,2,4]triazolo[1,5-c]pyrimidin-2-yl)-6-(trifluoromethyl)benzenesulfonamide] | 75% | 61% | 58% | – | 60% | 60% | 78% | 0% | 22% | 77% | 87%
